Test: recombinant UMI read abundance after kanamycin selection (control-corrected) (log10(CPM+1)); higher = more efficient recombination; extreme values may be limits of the assay; sequences stand for … in AGTGCAGAGAAAATCGGCCAGTTTTCTCTGCCTGCAGTCCGCATGCCGTGGGACCCCTTGGGTTCTAACCTGTTGCCTAGATTTATGCAGCGGACTGCCTTTCTCCCAAAGTGATAAACCGG…AGGTTGGTTTCACT; site = the 11-nt donor
In short: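 Values are reported as log10(CPM+1), obtained by converting sequencing counts to CPM, averaging replicates and scaling by control-derived factors. The counts came from recombinant UMIs amplified by PCR across the donor–target junction. These UMIs came from a pooled Escherichia coli screen of donor and donor-binding-loop pairs for the IS621 bridge recombinase, plated with IPTG (0.07 mM) plus kanamycin or left unselected, in two replicates each.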
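Further: IS621 bridge recombinase in Escherichia coli cells against a fixed T5 target plasmid.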

## CGAGCAGCATGGACCGGTTTTCCCGGTAATCCGTATTTGCT (site CCAGCAGCTAG)
  recombinant UMI read abundance (log10): 0.0072

## CGAGCAGCATGGACCGGTTTTCCCGGTAATCCGTATTTGCT (site CGAGCAGCTAG)
  recombinant UMI read abundance (log10): 2.13

## CGAGCAGCATGGACCGGTTTTCCCGGTAATCCGTATTTGCT (site CGATCATCTAG)
  recombinant UMI read abundance (log10): 0

## CGAGCAGCATGGACCGGTTTTCCCGGTAATCCGTATTTGCT (site CTAGCAGCTAG)
  recombinant UMI read abundance (log10): 0.852

## CGAGCATCATGGACCGGTTTTCCCGGTAATCCGTATTTGCA (site CGAGCATCTTG)
  recombinant UMI read abundance (log10): 2.46

## CGAGCATCATGGACCGGTTTTCCCGGTAATCCGTATTTGCA (site CGATCATCTAG)
  recombinant UMI read abundance (log10): 0

## CGAGCATCATGGACCGGTTTTCCCGGTAATCCGTATTTGTT (site CGAGCATCTAA)
  recombinant UMI read abundance (log10): 2.61

## CGAGCATCATGGACCGGTTTTCCCGGTAATCCGTATTTGTT (site CGATCATCTAG)
  recombinant UMI read abundance (log10): 0

## CGAGCCTCATGGACCGGTTTTCCCGGTAATCCGTATTTGGC (site CGAGCCTCTGC)
  recombinant UMI read abundance (log10): 2.21

## CGAGCTTCATGGACCGGTTTTCCCGGTAATCCGTATTTGAA (site CGAGCTTCTTT)
  recombinant UMI read abundance (log10): 1.88

## CGAGGACCATGGACCGGTTTTCCCGGTAATCCGTATTTGAG (site CGAGGACCTCA)
  recombinant UMI read abundance (log10): 0.015

## CGAGGACCATGGACCGGTTTTCCCGGTAATCCGTATTTGAG (site CGAGGACCTCC)
  recombinant UMI read abundance (log10): 0

## CGAGGACCATGGACCGGTTTTCCCGGTAATCCGTATTTGAG (site CGAGGACCTCG)
  recombinant UMI read abundance (log10): 0.00506

## CGAGGACCATGGACCGGTTTTCCCGGTAATCCGTATTTGAG (site CGAGGACCTCT)
  recombinant UMI read abundance (log10): 0.00302

## CGAGGAGCATGGACCGGTTTTCCCGGTAATCCGTATTTGGA (site CGAGGAGCTTC)
  recombinant UMI read abundance (log10): 1.57

## CGAGGATCATGGACCGGTTTTCCCGGTAATCCGTATTTGAC (site CGAGGATCTGT)
  recombinant UMI read abundance (log10): 2.99

## CGAGGATCATGGACCGGTTTTCCCGGTAATCCGTATTTGAC (site CTAGTATCTGT)
  recombinant UMI read abundance (log10): 0

## CGAGGGCCATGGACCGGTTTTCCCGGTAATCCGTATTTGCA (site CGAGGGCCTTG)
  recombinant UMI read abundance (log10): 0.708

## CGAGGGCCATGGACCGGTTTTCCCGGTAATCCGTATTTGGG (site CGAGGACCTCC)
  recombinant UMI read abundance (log10): 0.0191

## CGAGGGCCATGGACCGGTTTTCCCGGTAATCCGTATTTGGG (site CGAGGCCCTCC)
  recombinant UMI read abundance (log10): 0.0184

## CGAGGGCCATGGACCGGTTTTCCCGGTAATCCGTATTTGGG (site CGAGGGCCTCC)
  recombinant UMI read abundance (log10): 0.0164

## CGAGGGCCATGGACCGGTTTTCCCGGTAATCCGTATTTGGG (site CGAGGTCCTCC)
  recombinant UMI read abundance (log10): 0.0269

## CGAGTACCATGGACCGGTTTTCCCGGTAATCCGTATTTGGG (site CGAGAACCTCC)
  recombinant UMI read abundance (log10): 0

## CGAGTACCATGGACCGGTTTTCCCGGTAATCCGTATTTGGG (site CGAGCACCTCC)
  recombinant UMI read abundance (log10): 0.0141

## CGAGTACCATGGACCGGTTTTCCCGGTAATCCGTATTTGGG (site CGAGGACCTCC)
  recombinant UMI read abundance (log10): 0.00419

## CGAGTACCATGGACCGGTTTTCCCGGTAATCCGTATTTGGG (site CGAGTACCTCC)
  recombinant UMI read abundance (log10): 0.0186

## CGAGTGCCATGGACCGGTTTTCCCGGTAATCCGTATTTGTT (site CGAGTGCCTAA)
  recombinant UMI read abundance (log10): 0.52

## CGATAACCATGGACCGGTTTTCCCGGTAATCCGTATTTGGT (site CGATAACCTAC)
  recombinant UMI read abundance (log10): 0

## CGATACTCATGGACCGGTTTTCCCGGTAATCCGTATTTGCT (site CGATACTCTAG)
  recombinant UMI read abundance (log10): 2.52

## CGATACTCATGGACCGGTTTTCCCGGTAATCCGTATTTGCT (site CGATCATCTAG)
  recombinant UMI read abundance (log10): 0

## CGATAGACATGGACCGGTTTTCCCGGTAATCCGTATTTGCC (site AGATAGACTGG)
  recombinant UMI read abundance (log10): 0

## CGATAGACATGGACCGGTTTTCCCGGTAATCCGTATTTGCC (site CGATAGACTGG)
  recombinant UMI read abundance (log10): 2.96

## CGATAGACATGGACCGGTTTTCCCGGTAATCCGTATTTGCC (site GGATAGACTGG)
  recombinant UMI read abundance (log10): 0

## CGATAGACATGGACCGGTTTTCCCGGTAATCCGTATTTGCC (site TGATAGACTGG)
  recombinant UMI read abundance (log10): 0

## CGATAGCCATGGACCGGTTTTCCCGGTAATCCGTATTTGCT (site CGATAGCCTAG)
  recombinant UMI read abundance (log10): 1.12

## CGATATACATGGACCGGTTTTCCCGGTAATCCGTATTTGTA (site CGATATACTTA)
  recombinant UMI read abundance (log10): 2.25

## CGATATGCATGGACCGGTTTTCCCGGTAATCCGTATTTGGG (site CGATATGCTCC)
  recombinant UMI read abundance (log10): 0.685

## CGATCAACATGGACCGGTTTTCCCGGTAATCCGTATTTGGT (site CGATCAACTAC)
  recombinant UMI read abundance (log10): 0.796

## CGATCAACATGGACCGGTTTTCCCGGTAATCCGTATTTGGT (site CGATCATCTAG)
  recombinant UMI read abundance (log10): 0

## CGATCACCATGGACCGGTTTTCCCGGTAATCCGTATTTGCC (site CGATCACCTGG)
  recombinant UMI read abundance (log10): 0

## CGATCACCATGGACCGGTTTTCCCGGTAATCCGTATTTGCC (site CGATCATCTAG)
  recombinant UMI read abundance (log10): 0

## CGATCACCATGGACCGGTTTTCCCGGTAATCCGTATTTGCT (site CGATCAACTAG)
  recombinant UMI read abundance (log10): 0

## CGATCACCATGGACCGGTTTTCCCGGTAATCCGTATTTGCT (site CGATCACCTAG)
  recombinant UMI read abundance (log10): 0

## CGATCACCATGGACCGGTTTTCCCGGTAATCCGTATTTGCT (site CGATCAGCTAG)
  recombinant UMI read abundance (log10): 0

## CGATCACCATGGACCGGTTTTCCCGGTAATCCGTATTTGCT (site CGATCATCTAG)
  recombinant UMI read abundance (log10): 0

## CGATCAGCATGGACCGGTTTTCCCGGTAATCCGTATTTGCA (site CGATCAGCTTG)
  recombinant UMI read abundance (log10): 1.9

## CGATCAGCATGGACCGGTTTTCCCGGTAATCCGTATTTGCA (site CGATCATCTAG)
  recombinant UMI read abundance (log10): 0

## CGATCAGCATGGACCGGTTTTCCCGGTAATCCGTATTTGCT (site CGATCAACTAG)
  recombinant UMI read abundance (log10): 0

## CGATCAGCATGGACCGGTTTTCCCGGTAATCCGTATTTGCT (site CGATCACCTAG)
  recombinant UMI read abundance (log10): 0

## CGATCAGCATGGACCGGTTTTCCCGGTAATCCGTATTTGCT (site CGATCAGCTAG)
  recombinant UMI read abundance (log10): 1.61

## CGATCAGCATGGACCGGTTTTCCCGGTAATCCGTATTTGCT (site CGATCATCTAG)
  recombinant UMI read abundance (log10): 0

## CGATCATCATGGACCGGTTTTCCCGGTAATCCGTATTTGGT (site CGATCATCTAA)
  recombinant UMI read abundance (log10): 0.00543

## CGATCATCATGGACCGGTTTTCCCGGTAATCCGTATTTGGT (site CGATCATCTAC)
  recombinant UMI read abundance (log10): 1.58

## CGATCATCATGGACCGGTTTTCCCGGTAATCCGTATTTGGT (site CGATCATCTAG)
  recombinant UMI read abundance (log10): 0.495

## CGATCATCATGGACCGGTTTTCCCGGTAATCCGTATTTGGT (site CGATCATCTAT)
  recombinant UMI read abundance (log10): 1.08

## CGATCGACATGGACCGGTTTTCCCGGTAATCCGTATTTGCT (site CGATCGACTAA)
  recombinant UMI read abundance (log10): 0.3

## CGATCGACATGGACCGGTTTTCCCGGTAATCCGTATTTGCT (site CGATCGACTAC)
  recombinant UMI read abundance (log10): 0.00923

## CGATCGACATGGACCGGTTTTCCCGGTAATCCGTATTTGCT (site CGATCGACTAG)
  recombinant UMI read abundance (log10): 2.63

## CGATCGACATGGACCGGTTTTCCCGGTAATCCGTATTTGCT (site CGATCGACTAT)
  recombinant UMI read abundance (log10): 0.0395

## CGATCGACATGGACCGGTTTTCCCGGTAATCCGTATTTGTC (site CGATCGACTAA)
  recombinant UMI read abundance (log10): 0.00466

## CGATCGACATGGACCGGTTTTCCCGGTAATCCGTATTTGTC (site CGATCGACTCA)
  recombinant UMI read abundance (log10): 0

## CGATCGACATGGACCGGTTTTCCCGGTAATCCGTATTTGTC (site CGATCGACTGA)
  recombinant UMI read abundance (log10): 1.08

## CGATCGACATGGACCGGTTTTCCCGGTAATCCGTATTTGTC (site CGATCGACTTA)
  recombinant UMI read abundance (log10): 0

## CGATCGGCATGGACCGGTTTTCCCGGTAATCCGTATTTGAA (site CGATCGGCTTT)
  recombinant UMI read abundance (log10): 1.25

## CGATCGTCATGGACCGGTTTTCCCGGTAATCCGTATTTGTT (site CGATCGACTAA)
  recombinant UMI read abundance (log10): 0.00634

## CGATCGTCATGGACCGGTTTTCCCGGTAATCCGTATTTGTT (site CGATCGCCTAA)
  recombinant UMI read abundance (log10): 0.0131

## CGATCGTCATGGACCGGTTTTCCCGGTAATCCGTATTTGTT (site CGATCGGCTAA)
  recombinant UMI read abundance (log10): 0.0205

## CGATCGTCATGGACCGGTTTTCCCGGTAATCCGTATTTGTT (site CGATCGTCTAA)
  recombinant UMI read abundance (log10): 1.25

## CGATCTCCATGGACCGGTTTTCCCGGTAATCCGTATTTGCT (site CGATCTCCTAG)
  recombinant UMI read abundance (log10): 0

## CGATCTTCATGGACCGGTTTTCCCGGTAATCCGTATTTGTT (site CGATCATCTAG)
  recombinant UMI read abundance (log10): 0

## CGATCTTCATGGACCGGTTTTCCCGGTAATCCGTATTTGTT (site CGATCTTCTAA)
  recombinant UMI read abundance (log10): 0.751

## CGATGATCATGGACCGGTTTTCCCGGTAATCCGTATTTGCT (site CGATAATCTAG)
  recombinant UMI read abundance (log10): 2.33

## CGATGATCATGGACCGGTTTTCCCGGTAATCCGTATTTGCT (site CGATCATCTAG)
  recombinant UMI read abundance (log10): 0.00821

## CGATGATCATGGACCGGTTTTCCCGGTAATCCGTATTTGCT (site CGATGATCTAG)
  recombinant UMI read abundance (log10): 2.46

## CGATGATCATGGACCGGTTTTCCCGGTAATCCGTATTTGCT (site CGATTATCTAG)
  recombinant UMI read abundance (log10): 0.958

Reference: the supplement of paper PMC11208160
